Test results reported in ChEMBL document CHEMBL2380196, “New anticancer active and selective phenylene-bisbenzothiazoles: synthesis, antiproliferative evaluation and DNA binding” (Eur J Med Chem, 2013).
Activity calls are given as the source filed them. No cut-off for these calls is given here.

Legend:
[1] = system: MIA PaCa-2; test: Induction of apoptosis in human MIAPaCa2 cells at 10 uM after 48 hrs using propidium iodide/Annexin-V staining by flow cytometry relative to control; type: functional
[2] = target: T1, DNA topoisomerase 1 (Homo sapiens) (UniProt P11387); test: Inhibition of human topoisomerase 1-mediated supercoiled pUC19 DNA relaxation at 1 to 50 uM after 45 mins by agarose gel electrophoresis
T1 sequence (whole entry): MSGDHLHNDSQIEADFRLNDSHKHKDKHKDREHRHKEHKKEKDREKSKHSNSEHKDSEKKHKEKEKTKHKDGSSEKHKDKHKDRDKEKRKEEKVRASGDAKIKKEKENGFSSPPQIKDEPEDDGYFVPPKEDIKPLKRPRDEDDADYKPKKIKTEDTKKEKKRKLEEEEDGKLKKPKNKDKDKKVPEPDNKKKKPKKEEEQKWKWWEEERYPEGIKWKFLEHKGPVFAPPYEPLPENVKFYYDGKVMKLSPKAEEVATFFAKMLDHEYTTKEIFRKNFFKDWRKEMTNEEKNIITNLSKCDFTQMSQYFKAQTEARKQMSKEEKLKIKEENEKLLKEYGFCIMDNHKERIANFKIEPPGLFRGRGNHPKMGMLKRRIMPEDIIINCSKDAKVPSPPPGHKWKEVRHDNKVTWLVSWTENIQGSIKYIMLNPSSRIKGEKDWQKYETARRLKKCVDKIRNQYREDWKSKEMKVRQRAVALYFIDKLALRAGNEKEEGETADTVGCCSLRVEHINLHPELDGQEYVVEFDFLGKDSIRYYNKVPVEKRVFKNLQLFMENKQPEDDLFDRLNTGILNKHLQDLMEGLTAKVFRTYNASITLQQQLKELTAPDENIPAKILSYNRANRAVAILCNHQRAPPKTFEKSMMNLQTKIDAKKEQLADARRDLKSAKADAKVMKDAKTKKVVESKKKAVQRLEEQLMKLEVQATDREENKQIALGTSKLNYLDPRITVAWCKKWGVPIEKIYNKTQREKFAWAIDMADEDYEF

[3] = system: SW-620; test: Induction of apoptosis in human SW620 cells at 10 uM after 24 hrs using propidium iodide/Annexin-V staining by flow cytometry relative to control; type: functional
[4] = system: SW-620; test: Cell cycle arrest in human SW620 cells assessed as accumulation in G1 phase at 5 uM after 24 hrs using propidium iodide staining by flow cytometry relative to control; type: functional
[5] = system: SW-620; test: Cell cycle arrest in human SW620 cells assessed as accumulation in sub-G1 phase at 5 uM after 24 hrs using propidium iodide staining by flow cytometry relative to control; type: functional
[6] = target: T1, DNA topoisomerase 1 (Homo sapiens); test: Inhibition of human topoisomerase 1-mediated supercoiled pUC19 DNA relaxation assessed as formation of open circle form after 45 mins using ethidium bromide staining by agarose gel electrophoresis
[7] = system: SW-620; test: Cell cycle arrest in human SW620 cells assessed as accumulation in G2/M phase at 10 uM after 48 hrs using propidium iodide staining by flow cytometry relative to control; type: functional
[8] = system: SW-620; test: Cell cycle arrest in human SW620 cells assessed as accumulation in G2/M phase at 5 uM after 48 hrs using propidium iodide staining by flow cytometry relative to control; type: functional
[9] = system: SW-620; test: Cell cycle arrest in human SW620 cells assessed as accumulation in G2/M phase at 10 uM after 24 hrs using propidium iodide staining by flow cytometry relative to control; type: functional
[10] = system: SW-620; test: Cell cycle arrest in human SW620 cells assessed as accumulation in G2/M phase at 5 uM after 24 hrs using propidium iodide staining by flow cytometry relative to control; type: functional
[11] = system: SW-620; test: Cell cycle arrest in human SW620 cells assessed as accumulation in G1 phase at 5 uM after 48 hrs using propidium iodide staining by flow cytometry relative to control; type: functional
[12] = system: SW-620; test: Cell cycle arrest in human SW620 cells assessed as accumulation in S phase at 5 uM after 24 hrs using propidium iodide staining by flow cytometry relative to control; type: functional

SMILES	Activity [1]	inhibition [2]	Activity [3]	Activity [4]	Activity [5]	inhibition [6]	Activity [7]	Activity [8]	Activity [9]	Activity [10]	Activity [11]	Activity [12]
Cl.Cl.c1cc2nc(-c3ccc(-c4nc5ccc(C6=NCCN6)cc5s4)cc3)sc2cc1C1=NCCN1	4%	Active	–	–	–	–	–	–	–	–	–	–
Cl.Cl.c1cc(-c2nc3ccc(C4=NCCN4)cc3s2)cc(-c2nc3ccc(C4=NCCN4)cc3s2)c1	–	–	8%	45.3%	13.5%	Active	6.8%	14.7%	23.9%	15.5%	36.7%	46.6%
